Entries after “also recorded” stand apart in the source; their conditions may differ. Where two headings read alike, the source gives them in different places.
What was measured:
[1] = tested on: alpha-SMA (alpha-smooth muscle actin) mRNA expression; assay: CCl4-induced changes in liver fibrosis marker in C57BL/6 mice; format: in vivo
Experimental: A pilot study using male C57BL/6 mice was carried out to explore the changes in liver fibrosis biomarker after one single injection of carbon tetrachloride (CCl4) given by intraperitoneal (IP) administration and the effect of several substances, including an sGC stimulator, in this model. Injection of CCl4 in mice results in elevation of alpha-SMA (alpha-smooth muscle actin) mRNA expression and this can be used as a biomarker of fibrosis in the liver. A reduction in the expression levels of this biomarker and reversal towards the normal levels, upon administration of an sGC stimulator, can be used to assess the potential utility of the compound in the treatment of liver fibrosis.
Mice used were 8 weeks old at receipt, healthy, and unused in other experimental procedures. Housing and care were as specified in the USDA Animal Welfare Act (9 CFR, Parts 1, and 3) and as described in the Guide for the Care and Use of Laboratory Animals from the National Research Council. Environmental conditions in housing rooms were set at the following ranges for acclimation and naive groups: temperature: 68±5° F. […], humidity: 50±:20%; light cycle: 12 hour light/12-hour dark; air changes: ten or more changes per hour with 100% HEPA filtered fresh air. Mice were given regular chow and water ad libitum and were not fasted overnight prior to compound administration.
CCl4 was dosed once to all animals, via intraperitoneal administration (IP) at a concentration of 15 μl (dissolved in 85 μl of corn or olive oil) and a dose volume of 100 μl per 30 g of mouse. Compound A was dosed to mice via oral administration (PO, by oral gavage), BID for 3 days at a concentration of 3 mg/mL (0.5% Methylcellulose) and a dose volume of […]. The single dose of CCl4 was administered two hours after the first dose of Compound A. The second dose of Compound A was administered 7 hours after the first dose. After three days of dosing, the animals were sacrificed and plasma and liver samples obtained for analysis.
Total RNA was extracted from isolated tissues by adding 1 ml Trizol and a stainless steel bead to each sample, and homogenized using a TissueLyser II at the highest speed (30 Hz) for 2 minutes at room temperature. After homogenization, 200 μl chloroform was added to each homogenized sample. The homogenate was vortexed briefly and left in an upright position at room temperature for 2-5 minutes until phase separation became visible by eye. Samples were centrifuged for 15 minutes at the highest speed (13,200 rpm) at 4° C. in an Eppendorf centrifuge.
After 15 minutes at the highest speed (13,200 rpm) centrifugation at 4° C., the supernatant of each sample (˜500 μl) was transferred into a new RNase-free tube. […]

OB/OB mice = conditions: cited from earlier work
rat animal model of NASH = conditions: cited from earlier work
[2] = Distribution of sGC stimulators in tissues, rats (liver and plasma by LC-MS/MS); format: in vivo; conditions: Wistar, rat, 2 h post fifth dose, male rats, read-out: total Liver:Plasma ratio
Experimental: The purpose of this experiment was to determine compound concentrations in the plasma and tissues of animals dosed with sGC stimulators for 5 days Q.D.
In a first experiment, the sGC stimulator Compound B (described previously in Example 2) was dosed for 5 Days Q.D. to male Wister rats. Rats were divided into four study groups and dosed according to the below table:
The animals were dosed daily for five consecutive days according the table above. On each day of dosing, frozen aliquots of each dosing solution were thawed and the animals were weighed and dosed accordingly. On day 5, two hours post the fifth dose, blood was collected by orbital bleed. Blood samples were collected in EDTA tubes pre-loaded with 5 μL of 100 mM IBMX Plasma was be separated by centrifugation for 10 minutes at 4° C. and then stored at −80° C.
A Ketamine/Xylazine/pbs solution as a 5:1:4 ratio was administered I.P. at 1 ul per gram. Once the rat was fully anesthetized (as determined by checking its reflexes) and while the heart was still beating, a needle was inserted into the left ventricle. Approximately 20 mls of PBS/IBMX/heparin solution were then perfused. The right atrium was snipped, and perfusion continued for approximately 10 additional mls (30 mls total). At this point, the femoral artery was snipped and perfusion was continued until there was no longer blood (only clear fluid) collecting in the abdominal cavity. Several tissues, including liver, were isolated and weighed followed by snap freezing.
A second separate and similar experiment was carried out with Compound C. The structure of Compound C is depicted below. The preparation and characterization of this compound was described in patent application publication WO2014144100, published 18 Sep. 2014.
For this second experiment, rats were divided into four study groups and dosed according to the below table:
Samples were analyzed using liquid chromatography (LC) with tandem mass spectrometric detection (MS/MS) using positive electrospray ionization. The standard curve range was from 0.1 to 400 ng/mL. […]
In order to prepare the tissues for measurement, the naïve livers and the livers isolated after treatment were removed from the −80° C. freezer and placed on liquid nitrogen. The liver weight was recorded and then the tissue placed in a Geno grinding vial containing two 7/16″ steel beads. […] Approximately 200 mg of tissue from each sample was weighed and recorded. […] The samples were analyzed by LC-MS/MS.
Total liver and plasma concentrations were measured and liver concentrations were corrected for total liver weight. Liver: Plasma ratios were determined by dividing liver compound concentration by the plasma compound concentration. […]

human brown adipocytes = conditions: cited from earlier work
[3] = tested on: WT mice fed a high fat diet (HFD); conditions: cited from earlier work
primary white adipocytes = conditions: cited from earlier work
[4] = 8 weeks at 300 mg/kg/24 hours in food and intraperitoneally at 1 mg/kg

For Cc1ccc(=O)n(-c2ccccc2)c1 [pirfenidone, reference compound], the “relative reduction of the increased alpha-SMA mRNA expression levels” value ([1]; 400 mg/kg dose) was “about 20%”.
In the case of CC(=O)N[C@@H](CSN=O)C(=O)O [SNAP, S-Nitroso-N-acetylcysteine], the “effect on NASH” value (OB/OB mice) is given as “prevent and reverse NASH” and the “onset of NASH” value (rat animal model of NASH) is given as “prevent the onset of NASH”.
NC(=O)[C@](O)(CNc1nc(-c2cc(-c3ccon3)n(Cc3ccccc3F)n2)ncc1F)C(F)(F)F [Compound C] showed a Kp ([2]; 1 mg/kg PO Q.D. 5 days) of 6 and a Kp ([2]; 10 mg/kg PO Q.D. 5 days) of 8.
For Nc1nc(-c2nn(Cc3ccccc3F)c3ncccc23)nc(N)c1N1CCOCC1 [BAY 41-8543], the “differentiation of human brown adipocytes” value (human brown adipocytes) is given as “enhances”, the “lipid uptake into BAT” value [3, 4] is given as “enhances” and the whole-body energy expenditure [3, 4] is given as “increases”. The “triglyceride content in the liver” value ([3]; WT mice fed a HFD, obese phenotype, compared to mice fed regular chow) was “significant reduction”, the diabetic phenotype ([3]; mouse, in vivo) was “improves” and the “diet-induced weight gain and liver steatosis” value ([3]; mouse, in vivo) was “protects against”. The “weight loss in established obesity” value ([3]; mouse, in vivo) was “induces weight loss” and the “browning of primary white adipocytes” value (primary white adipocytes) was “induces ‘browning’; also recorded: induces “browning””.
For NC(=O)[C@@](O)(CNc1nc(-c2cc(-c3ccon3)n(Cc3ccccc3F)n2)ncc1F)C(F)(F)F [Compound A], the “relative reduction of the increased alpha-SMA mRNA expression levels” value ([1]; 30 mg/kg dose) was “about 66%”, the “reduction of alpha-SMA expression compared with pirfenidone-treated samples” value ([1]; PO BID for 3 days, single IP CCl4) was “significantly more pronounced” and the “reduction of elevated levels of alpha-SMA expression compared to vehicle” value ([1]; PO BID for 3 days, single IP CCl4, vs vehicle (0.5% methyl cellulose)) was “statistically significant reduction”.

Source: patent US11357777B2, “Use of sGC stimulators for the treatment of nonalcoholic steatohepatitis (NASH)” (Cyclerion Therapeutics, Inc., priority 2016, dated 2022)
